Tests used:
[1] = system: MGC-803; assay: Antiproliferative activity against human MGC-803 cells assessed as inhibition of cell proliferation measured after 72 hrs by MTT assay; type: functional, cell-based; details: MGC-803, 72 h
[2] = system: MCF7; assay: Antiproliferative activity against human MCF7 cells assessed as inhibition of cell proliferation measured after 72 hrs by MTT assay; type: functional, cell-based; details: MCF7, 72 h
[3] = system: PC-9; assay: Antiproliferative activity against human PC-9 cells assessed as inhibition of cell proliferation measured after 72 hrs by MTT assay; type: functional, cell-based; details: PC-9, 72 h
[4] = system: GES1; assay: Antiproliferative activity against human GES1 cells assessed as inhibition of cell proliferation measured after 72 hrs by MTT assay; type: cell-based; details: GES1, 72 h

With CCCSc1nc2nc(C)cc(Nc3cc(-c4ccccc4)[nH]n3)n2n1 the IC50 [1] was 12.6 µM, the IC50 [2] was over 50 µM and the IC50 [3] was over 50 µM. The IC50 [4] was over 50 µM.
For Cc1cc(Nc2cc(-c3ccccc3)[nH]n2)n2nc(SCCc3ccccc3)nc2n1, the IC50 [1] was 5.62 µM, the IC50 [2] was 2.7 µM and the IC50 [3] was 4.93 µM. The IC50 [4] was 37.4 µM.
With Cc1cc(Nc2cc(-c3ccccc3)[nH]n2)n2nc(SCC3CC3)nc2n1 the IC50 [1] was 16.1 µM, the IC50 [2] was over 50 µM and the IC50 [3] was over 50 µM. For the same molecule, the IC50 [4] was over 50 µM.
For CCCCCc1c(C)nc2nc(SCc3ccc(Cl)cc3)nn2c1Nc1cc(-c2ccccc2)[nH]n1, the IC50 [1] was 7.14 µM, the IC50 [2] was 6.39 µM and the IC50 [3] was over 50 µM. The IC50 [4] was over 50 µM.
For Cc1cc(Nc2cc(-c3cccs3)[nH]n2)n2nc(SCc3ccc(Br)cc3)nc2n1, the IC50 [1] was 3.77 µM, the IC50 [2] was 5.37 µM and the IC50 [3] was 4.89 µM. For the same molecule, the IC50 [4] was 38.7 µM.
Work on Cc1nc2nc(SCc3ccc(Cl)cc3)nn2c(Nc2cc(-c3ccccc3)[nH]n2)c1C yielded an IC50 [1] of 9.05 µM, an IC50 [2] of 10.6 µM and an IC50 [3] of over 50 µM. For the same molecule, the IC50 [4] was 47.2 µM.
Molecule Cc1cc(Nc2ccn(Cc3ccccc3)n2)n2nc(SCc3ccc(Br)cc3)nc2n1 has an IC50 [1] of 4.72 µM, an IC50 [2] of 15.8 µM and an IC50 [3] of over 50 µM. It also gave an IC50 [4] of 44.4 µM.
Cc1cc(Nc2cc(C(C)(C)C)[nH]n2)n2nc(SCc3ccc(Br)cc3)nc2n1 was tested, and the IC50 [1] was 5.62 µM, the IC50 [2] was 7.29 µM and the IC50 [3] was 12.4 µM. For the same molecule, the IC50 [4] was over 50 µM.
Molecule Cc1cc(Nc2cc(-c3ccccc3)[nH]n2)n2nc(SCCCc3ccccc3)nc2n1 has an IC50 [1] of 6.51 µM, an IC50 [2] of 3.9 µM and an IC50 [3] of 5.03 µM. The IC50 [4] was 40.2 µM.
With Cc1cc(Nc2cc(-c3ccccc3)[nH]n2)n2nc(SCc3nc4ccccc4[nH]3)nc2n1 the IC50 [1] was 1.79 µM, the IC50 [2] was 2.73 µM and the IC50 [3] was 4.84 µM. It also gave an IC50 [4] of 27.8 µM.
With Cc1cc(Nc2cc(-c3ccccc3)[nH]n2)n2nc(SCc3cccc(Br)c3)nc2n1 the IC50 [1] was 4.82 µM, the IC50 [2] was 5.14 µM and the IC50 [3] was 8.9 µM. For the same molecule, the IC50 [4] was over 50 µM.
For Cc1cc(Nc2cc(-c3ccccc3)[nH]n2)n2nc(SCc3ccc(F)cc3)nc2n1, the IC50 [1] was 3.27 µM, the IC50 [2] was 4.02 µM and the IC50 [3] was 8.11 µM. For the same molecule, the IC50 [4] was 35.5 µM.
Work on Cc1cc(Nc2cc(-c3ccccc3)[nH]n2)n2nc(SCc3c(Cl)cccc3Cl)nc2n1 yielded an IC50 [1] of 5.28 µM, an IC50 [2] of 3.23 µM and an IC50 [3] of 5.18 µM. It also gave an IC50 [4] of 39.6 µM.
Cc1ccc(Cn2ccc(Nc3cc(C)nc4nc(SCc5ccc(Br)cc5)nn34)n2)cc1 was tested, and the IC50 [1] was 7.42 µM, the IC50 [2] was 11.3 µM and the IC50 [3] was over 50 µM. The IC50 [4] was over 50 µM.
Cc1cc(Nc2cc(-c3ccccc3)[nH]n2)n2nc(SCc3cccc4ccccc34)nc2n1 showed an IC50 [1] of 3.12 µM, an IC50 [2] of 7.56 µM and an IC50 [3] of 3.95 µM. For the same molecule, the IC50 [4] was 36.3 µM.
With C#CCSc1nc2nc(C)cc(Nc3cc(-c4ccccc4)[nH]n3)n2n1 the IC50 [1] was 13.4 µM, the IC50 [2] was 21.8 µM and the IC50 [3] was over 50 µM. For the same molecule, the IC50 [4] was 45.7 µM.
Cc1cc(Nc2cc(-c3ccccc3)[nH]n2)n2nc(SCC3CCCCC3)nc2n1 showed an IC50 [1] of 12.6 µM, an IC50 [2] of over 50 µM and an IC50 [3] of over 50 µM. It also gave an IC50 [4] of over 50 µM.
Work on COc1ccc(Cn2ccc(Nc3cc(C)nc4nc(SCc5ccc(Br)cc5)nn34)n2)cc1 yielded an IC50 [1] of 12.6 µM, an IC50 [2] of 14.6 µM and an IC50 [3] of over 50 µM. For the same molecule, the IC50 [4] was over 50 µM.
Work on Cc1cc(Nc2ccn(Cc3cccc4ccccc34)n2)n2nc(SCc3ccc(Br)cc3)nc2n1 yielded an IC50 [1] of 3.24 µM, an IC50 [2] of 4.31 µM and an IC50 [3] of 5.66 µM. It also gave an IC50 [4] of 30 µM.
O=c1[nH]cc(F)c(=O)[nH]1 [FLUOROURACIL] was tested, and the IC50 [2] was 5.32 µM and the IC50 [4] was 2.45 µM.
Molecule Cc1cc(Nc2ccn(Cc3ccc(F)cc3)n2)n2nc(SCc3ccc(Br)cc3)nc2n1 has an IC50 [1] of 3.07 µM, an IC50 [2] of 4.28 µM and an IC50 [3] of 19.4 µM. For the same molecule, the IC50 [4] was 40.5 µM.
Cc1cc(Nc2cc(-c3ccccc3)[nH]n2)n2nc(SCc3ccccc3Br)nc2n1 gave an IC50 [1] of 3.65 µM, an IC50 [2] of 3.02 µM and an IC50 [3] of 5.63 µM. It also gave an IC50 [4] of 41.1 µM.
Cc1cc(Nc2cc(-c3ccccc3)[nH]n2)n2nc(SCc3ccc(Br)cc3)nc2n1 was tested, and the IC50 [1] was 1.11 µM, the IC50 [2] was 2.72 µM and the IC50 [3] was 4.76 µM. It also gave an IC50 [4] of 39.3 µM.
C=CCSc1nc2nc(C)cc(Nc3cc(-c4ccccc4)[nH]n3)n2n1 gave an IC50 [1] of 17.2 µM, an IC50 [2] of over 50 µM and an IC50 [3] of over 50 µM. The IC50 [4] was over 50 µM.
In the case of Cc1cc(Nc2cc(-c3ccc(Cl)cc3)[nH]n2)n2nc(SCc3ccc(Br)cc3)nc2n1, the IC50 [1] is reported as 2.78 µM, the IC50 [2] is reported as 3.62 µM and the IC50 [3] is reported as 4.92 µM. The IC50 [4] was 28.2 µM.
Cc1cc(Nc2cc(-c3ccccc3)[nH]n2)n2nc(SCc3ccc(Cl)cc3)nc2n1 showed an IC50 [1] of 3.95 µM, an IC50 [2] of 8.26 µM and an IC50 [3] of 6.71 µM. It also gave an IC50 [4] of 31.8 µM.
Cc1cc(Nc2cc(-c3ccccc3)[nH]n2)n2ncnc2n1 gave an IC50 [1] of 21.7 µM, an IC50 [2] of over 50 µM and an IC50 [3] of over 50 µM. The IC50 [4] was over 50 µM.
Cc1cc(Nc2cc(-c3ccccc3)[nH]n2)n2nc(SCc3csc4ccccc34)nc2n1 gave an IC50 [1] of 2.28 µM, an IC50 [2] of 3.47 µM and an IC50 [3] of 4.42 µM. The IC50 [4] was 29.2 µM.
Cc1cc(Nc2cc(-c3ccc(F)cc3)[nH]n2)n2nc(SCc3ccc(Br)cc3)nc2n1 was tested, and the IC50 [1] was 2.21 µM, the IC50 [2] was 4.57 µM and the IC50 [3] was 6.21 µM. The IC50 [4] was 34.1 µM.
COc1ccc(CSc2nc3nc(C)cc(Nc4cc(-c5ccccc5)[nH]n4)n3n2)cc1 gave an IC50 [1] of 3.17 µM, an IC50 [2] of 4.02 µM and an IC50 [3] of 8.11 µM. It also gave an IC50 [4] of 28.2 µM.
Cc1cc(Nc2cc(-c3ccccc3)[nH]n2)n2nc(SCc3cc(=O)oc4c3ccc3ccccc34)nc2n1 showed an IC50 [1] of 2.07 µM, an IC50 [2] of 4.28 µM and an IC50 [3] of 3.41 µM. For the same molecule, the IC50 [4] was 28.6 µM.
Work on Cc1cc(Nc2ccn(Cc3csc4ccc(Cl)cc34)n2)n2nc(SCc3ccc(Br)cc3)nc2n1 yielded an IC50 [1] of 1.57 µM, an IC50 [2] of 2.57 µM and an IC50 [3] of 4.35 µM. It also gave an IC50 [4] of 31.4 µM.
With Cc1cc(Nc2cc(-c3ccccc3)[nH]n2)n2nc(SCc3ccc(C(F)(F)F)cc3)nc2n1 the IC50 [1] was 3.52 µM, the IC50 [2] was 4.82 µM and the IC50 [3] was 4.24 µM. The IC50 [4] was 42.7 µM.
Work on Cc1cc(Nc2ccn(Cc3ccc(C(F)(F)F)cc3)n2)n2nc(SCc3ccc(Br)cc3)nc2n1 yielded an IC50 [1] of 2.59 µM, an IC50 [2] of 2.28 µM and an IC50 [3] of 5.58 µM. It also gave an IC50 [4] of 30.2 µM.
Molecule Cc1ccc(CSc2nc3nc(C)cc(Nc4cc(-c5ccccc5)[nH]n4)n3n2)cc1 has an IC50 [1] of 6.96 µM, an IC50 [2] of 7.29 µM and an IC50 [3] of 7.31 µM. For the same molecule, the IC50 [4] was 36.2 µM.
Work on Cc1cc(Nc2cc(-c3ccccc3)[nH]n2)n2nc(SCc3ccc([N+](=O)[O-])cc3)nc2n1 yielded an IC50 [1] of 4.25 µM, an IC50 [2] of 5.06 µM and an IC50 [3] of 7.98 µM. The IC50 [4] was 43.6 µM.
For Cc1cc(Nc2cc(-c3ccccc3)[nH]n2)n2nc(SCC(=O)c3ccccc3)nc2n1, the IC50 [1] was 2.58 µM, the IC50 [2] was 5.24 µM and the IC50 [3] was 4.45 µM. It also gave an IC50 [4] of 33.3 µM.

From ChEMBL document CHEMBL4819020, “Discovery of [1,2,4]triazolo[1,5-a]pyrimidines derivatives as potential anticancer agents” (Eur J Med Chem, 2021)
